According to PubChem BioAssay AID248 (DTP/NCI, 2004):
Several values for one entry are separate records, joined by “and”; a condition that tells them apart may be missing. Equal entries are not always repeated. Toxic doses and inconclusive results are not listed. Cut-off read from the data, not from the text of the source: active = T/C of 150% or more; inactive = T/C below 125%.

System: L1210 leukemia ip in BDF1 mice, survival T/C
Assay: NCI In Vivo Anticancer Drug Screen. Data for tumor model L1210 Leukemia (intraperitoneal) in B6D2F1 (BDF1) mice
Details: endpoint: mean survival time, higher = longer survival
Method in brief: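 Each compound was tested against a transplantable tumor grown in mice. The endpoint was survival, with treated animals benchmarked against vehicle controls as a simple ratio.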

[1] = dose: 50.0 mg/kg/injection, schedule: Q01DX009 (ip), vehicle: Klucel (hydroxypropylcellulose) (HPC)
[2] = dose: 100.0 mg/kg/injection, schedule: Q01DX009 (ip), vehicle: Klucel (hydroxypropylcellulose) (HPC)
[3] = dose: 100.0 mg/kg/injection, schedule: Q01DX009 (ip), vehicle: saline with Tween-80
[4] = dose: 200.0 mg/kg/injection, schedule: Q01DX009 (ip), vehicle: Klucel (hydroxypropylcellulose) (HPC)
[5] = dose: 200.0 mg/kg/injection, schedule: Q01DX009 (ip), vehicle: saline with Tween-80
[6] = dose: 100.0 mg/kg/injection, schedule: Q04DX003 (ip), vehicle: gum acacia
[7] = dose: 200.0 mg/kg/injection, schedule: Q04DX003 (ip), vehicle: gum acacia
[8] = dose: 400.0 mg/kg/injection, schedule: Q04DX003 (ip), vehicle: gum acacia
[9] = dose: 100.0 mg/kg/injection, schedule: Q01DX001 (ip), vehicle: carboxymethylcellulose (CMC)
[10] = dose: 200.0 mg/kg/injection, schedule: Q01DX001 (ip), vehicle: carboxymethylcellulose (CMC)
[11] = dose: 400.0 mg/kg/injection, schedule: Q01DX001 (ip), vehicle: carboxymethylcellulose (CMC)
[12] = dose: 100.0 mg/kg/injection, schedule: Q01DX009 (ip), vehicle: saline
[13] = dose: 100.0 mg/kg/injection, schedule: Q01DX001 (ip), vehicle: saline
[14] = dose: 200.0 mg/kg/injection, schedule: Q01DX001 (ip), vehicle: saline
[15] = dose: 400.0 mg/kg/injection, schedule: Q01DX001 (ip), vehicle: saline
[16] = dose: 50.0 mg/kg/injection, schedule: Q01DX001 (ip), vehicle: saline
[17] = dose: 100.0 mg/kg/injection, schedule: Q04DX003 (ip), vehicle: saline with Tween-80
[18] = dose: 200.0 mg/kg/injection, schedule: Q04DX003 (ip), vehicle: saline with Tween-80
[19] = dose: 400.0 mg/kg/injection, schedule: Q01DX009 (ip), vehicle: saline with Tween-80
[20] = dose: 400.0 mg/kg/injection, schedule: Q04DX003 (ip), vehicle: saline with Tween-80

Measured: T/C

CCCCNC(=O)c1n[se]nc1NC(N)=O
inactive: dose: 25.0 mg/kg/injection, schedule: Q01DX Z (ip), vehicle: carboxymethylcellulose (CMC) 91 % of control | dose: 37.5 mg/kg/injection, schedule: Q01DX Z (ip), vehicle: carboxymethylcellulose (CMC) 89 % of control | dose: 50.0 mg/kg/injection, schedule: Q01DX Z (ip), vehicle: carboxymethylcellulose (CMC) 90 % of control

CC(C)(C)OC(=O)NC(CSCc1ccccc1)C(=O)O (centres undefined)
inactive: [1] 98 % of control | [2] 92 % of control | [3] 91 % of control | [4] 98 % of control | [5] 89 % of control

Cc1ccc(C)c(Nc2cc(=O)[nH]c(=O)[nH]2)c1
inactive: [6] 93 % of control | [7] 91 % of control | [8] 87 % of control

COc1ccccc1/C=C1\SC(=S)NC1=O
inactive: dose: 50.0 mg/kg/injection, schedule: Q01DX001 (ip), vehicle: carboxymethylcellulose (CMC) 92 % of control | [9] 101 % of control | [10] 106 % of control | [11] 90 % of control

O=C(N/N=C/c1ccccc1)c1ccc(Cl)c(Cl)c1
inactive: dose: 100.0 mg/kg/injection, schedule: Q04DX003 (ip), vehicle: other 100 % of control | dose: 200.0 mg/kg/injection, schedule: Q04DX003 (ip), vehicle: other 92 % of control | dose: 400.0 mg/kg/injection, schedule: Q04DX003 (ip), vehicle: other 89 % of control

N#CCCN(CCC#N)c1ccccc1
inactive: [12] 94 % of control | dose: 200.0 mg/kg/injection, schedule: Q01DX009 (ip), vehicle: saline 102 % of control | dose: 400.0 mg/kg/injection, schedule: Q01DX009 (ip), vehicle: saline 107 % of control

Cc1cc(O)c(C(=O)/C=C/c2ccccc2)c(=O)[nH]1
inactive: [13] 86 % of control | [14] 96 % of control | [15] 92 % of control

FC(F)(F)c1cccc(NC(=S)NCc2ccco2)c1
inactive: [2] 90 % of control | [4] 93 % of control | dose: 400.0 mg/kg/injection, schedule: Q01DX009 (ip), vehicle: Klucel (hydroxypropylcellulose) (HPC) 96 % of control

N#Cc1ccc(CCc2ccccc2)cc1
inactive: [16] 102 % of control | [13] 102 % of control | [14] 101 % of control | [15] 102 % of control

OC(COc1ccc(Cl)cc1)COc1ccc(Cl)cc1
inactive: dose: 100.0 mg/kg/injection, schedule: Q01DX001 (ip), vehicle: saline with Tween-80 95 % of control | [3] 97 % of control | [17] 98 % of control | [5] 98 % of control | [18] 103 % of control | [19] 101 % of control | [20] 95 % of control

C#CCN(CC#C)CC#C
inactive: dose: 25.0 mg/kg/injection, schedule: Q04DX003 (ip), vehicle: saline 103 % of control | dose: 50.0 mg/kg/injection, schedule: Q04DX003 (ip), vehicle: saline 94 % of control

NC(=O)NOCc1ccc([N+](=O)[O-])cc1
inactive: dose: 100.0 mg/kg/injection, schedule: Q04DX003 (ip), vehicle: saline 98 % of control | dose: 200.0 mg/kg/injection, schedule: Q04DX003 (ip), vehicle: saline 101 % of control | dose: 400.0 mg/kg/injection, schedule: Q04DX003 (ip), vehicle: saline 115 % of control

Cc1ccc(S(=O)(=O)N/N=C(\CSc2ccc(N(C)C)cc2)c2ccccc2)cc1
inactive: dose: 50.0 mg/kg/injection, schedule: Q04DX002 (ip), vehicle: saline with Tween-80 105 % of control | dose: 100.0 mg/kg/injection, schedule: Q04DX002 (ip), vehicle: saline with Tween-80 86 % of control | dose: 200.0 mg/kg/injection, schedule: Q04DX002 (ip), vehicle: saline with Tween-80 97 % of control | dose: 400.0 mg/kg/injection, schedule: Q04DX002 (ip), vehicle: saline with Tween-80 90 % of control

CCCCCCC1CC2CCCCC2CC1CCCC (centres undefined)
inactive: [9] 96 % of control | [10] 100 % of control | [11] 94 % of control

CN(C)N=C1CCCC1
inactive: dose: 50.0 mg/kg/injection, schedule: Q01DX009 (ip), vehicle: saline 103 % of control | [12] 103 % of control

CC1(C)CC(C)(c2ccc(O)cc2)Oc2ccccc21 (centres undefined)
inactive: [17] 93 % of control | [18] 89 % of control

CCc1ccccc1NC(=O)Nc1ccc(Cl)cc1
inactive: dose: 100.0 mg/kg/injection, schedule: Q01DX009 (ip), vehicle: gum acacia 96 % of control | [6] 95 % of control | dose: 200.0 mg/kg/injection, schedule: Q01DX009 (ip), vehicle: gum acacia 96 % of control | [7] 98 % of control | dose: 400.0 mg/kg/injection, schedule: Q01DX009 (ip), vehicle: gum acacia 97 % of control | [8] 97 % of control

COC(=O)C(CSCSC)NC(=O)/C=C/c1ccccc1C (centres undefined)
inactive: [3] 101 % of control | [17] 95 % of control | [5] 101 % of control | [18] 93 % of control | [19] 113 % of control | [20] 97 % of control

Cc1cccc(NC(=O)NCCCl)c1C
inactive: [9] 91 % of control | [10] 91 % of control | [11] 93 % of control

Cc1cccc(C)c1NC(=S)N1CCC(CCCC2CCN(C(=S)Nc3c(C)cccc3C)CC2)CC1
inactive: [3] 93 % of control and 98 % of control | [5] 95 % of control and 105 % of control | [19] 93 % of control and 98 % of control

CCC(CC)(Cc1ccccc1)C(=O)NC(=O)NO
inactive: dose: 25.0 mg/kg/injection, schedule: Q01DX Z (ip), vehicle: methylcellulose (MC) 98 % of control | dose: 50.0 mg/kg/injection, schedule: Q01DX Z (ip), vehicle: methylcellulose (MC) 101 % of control | dose: 100.0 mg/kg/injection, schedule: Q01DX Z (ip), vehicle: methylcellulose (MC) 98 % of control

C/C(=N\[N+](C)(C)C)c1ccc2ccccc2c1
inactive: dose: 25.0 mg/kg/injection, schedule: Q01DX009 (ip), vehicle: Klucel (hydroxypropylcellulose) (HPC) 101 % of control | dose: 25.0 mg/kg/injection, schedule: Q04DX003 (ip), vehicle: Klucel (hydroxypropylcellulose) (HPC) 101 % of control | [1] 100 % of control | dose: 50.0 mg/kg/injection, schedule: Q04DX003 (ip), vehicle: Klucel (hydroxypropylcellulose) (HPC) 105 % of control | [2] 90 % of control | dose: 100.0 mg/kg/injection, schedule: Q04DX003 (ip), vehicle: Klucel (hydroxypropylcellulose) (HPC) 95 % of control and 105 % of control

O=C1NC(=S)N/C1=C\c1ccco1
inactive: dose: 25.0 mg/kg/injection, schedule: Q01DX001 (ip), vehicle: saline 100 % of control | [16] 100 % of control | [13] 98 % of control and 100 % of control
